Measurements: ChEMBL document CHEMBL4828748, “Design, synthesis, and pharmacological evaluation of sinomenine derivatives on rings A and C: Novel compounds screening for aplastic anemia targeting on cytotoxic T lymphocyte” (Eur J Med Chem, 2021)
Activity calls are given as the source filed them. The calls are words filed in the database; no cut-off is given here.

Experiments:
[1] = Cytotoxicity against C57BL/6J mouse peritoneal macrophages assessed as reduction of cell viability at 10 uM incubated for 24 hrs in presence of LPS by MTT assay; format: cell-based, Peritoneal macrophage
[2] = tested on: Peritoneal macrophage; assay: Inhibition of LPS-induced NO production in C57BL/6J mouse peritoneal macrophages at 10 uM measured after 24 hrs in presence of LPS by Griess reagent based assay relative to control; format: functional
[3] = Inhibition of mouse CTLL-2 cells activity at 10 uM incubated for 24 hrs; format: functional
[4] = Inhibition of mouse CTLL-2 cells activity incubated for 24 hrs; format: functional, cell-based
[5] = tested on: CD8-positive T cell; assay: Inhibition of CD3/CD28 antibody-stimulated C57BL/6 mouse primary CD8-positive T lymphocytes proliferation assessed as reduction in cell viability incubated for 48 hrs by CCK8 assay; format: functional, tissue-based; details: dose 1-10 µM
[6] = Inhibition of CD3/CD28 antibody-stimulated C57BL/6 mouse primary CD8-positive T lymphocytes activation assessed as proportion of CD69-positive cells at 1 uM incubated for 48 hrs by flow cytometry (reference value: 93.42%); format: functional, CD8-positive T cell; parameters: scale not given: the % may be the effect or the level left
[7] = tested on: CD8-positive T cell; assay: Inhibition of CD3/CD28 antibody-stimulated C57BL/6 mouse primary CD8-positive T lymphocytes proliferation at 1 to 5 uM incubated for 48 hrs by CFSE staining based flow cytometry; format: functional, tissue-based; details: dose 1-5 µM
[8] = tested on: CD8-positive T cell; assay: Inhibition of aerobic glycolysis in CD3/CD28 antibody-stimulated C57BL/6 mouse primary CD8-positive T lymphocytes assessed as reduction in glucose consumption at 1 to 5 uM incubated for 48 hrs; format: functional, tissue-based; details: dose 1-5 µM
[9] = tested on: CD8-positive T cell; assay: Inhibition of aerobic glycolysis in CD3/CD28 antibody-stimulated C57BL/6 mouse primary CD8-positive T lymphocytes assessed as reduction in lactate production at 1 to 5 uM incubated for 48 hrs; format: functional, tissue-based; details: dose 1-5 µM
[10] = Inhibition of hematopoietic negative regulators release in CD3/CD28 antibody-stimulated C57BL/6 mouse primary CD8-positive T lymphocytes assessed as suppression of IFN-gamma release measured after 48 hrs by ELISA; format: functional, tissue-based; details: C57BL/6, CD8-positive T cell
[11] = Inhibition of hematopoietic negative regulators release in CD3/CD28 antibody-stimulated C57BL/6 mouse primary CD8-positive T lymphocytes assessed as suppression of TNF-alpha release measured after 48 hrs by ELISA; format: functional, tissue-based; details: C57BL/6, CD8-positive T cell
[12] = Inhibition of IFN-gamma release in mouse CTLL-2 cells measured after 24 hrs by ELISA; format: functional, cell-based; details: CTLL-2, 24 h
[13] = tested on: Mus musculus; assay: Anti-aplastic anaemia in immune-mediated bone marrow failure BALB/c mouse model assessed as increase in RBC count at 2.5 to 10 mg/kg, po administered for 14 days and measured on day 14 by automated micro-analyzer; format: functional, organism-based; details: dose 2.5-10 mg/kg, time 14.0 day
[14] = tested on: Mus musculus; assay: Anti-aplastic anaemia in immune-mediated bone marrow failure BALB/c mouse model assessed as increase in hemoglobin content at 2.5 to 10 mg/kg, po administered for 14 days and measured on day 14 by automated micro-analyzer; format: functional, organism-based; details: dose 2.5-10 mg/kg, time 14.0 day
[15] = tested on: Mus musculus; assay: Anti-aplastic anaemia in immune-mediated bone marrow failure BALB/c mouse model assessed as increase in hematocrit content at 2.5 to 10 mg/kg, po administered for 14 days and measured on day 14 by automated micro-analyzer; format: functional, organism-based; details: dose 2.5-10 mg/kg, time 14.0 day
[16] = tested on: Mus musculus; assay: Anti-aplastic anaemia in immune-mediated bone marrow failure BALB/c mouse model assessed as increase in WBC count at 2.5 to 10 mg/kg, po administered for 14 days and measured on day 14 by automated micro-analyzer; format: functional, organism-based; details: dose 2.5-10 mg/kg, time 14.0 day
[17] = tested on: Mus musculus; assay: Anti-aplastic anaemia in immune-mediated bone marrow failure BALB/c mouse model assessed as increase in neutrophils count at 2.5 to 10 mg/kg, po administered for 14 days and measured on day 14 by automated micro-analyzer; format: functional, organism-based; details: dose 2.5-10 mg/kg, time 14.0 day
[18] = tested on: Mus musculus; assay: Anti-aplastic anaemia in immune-mediated bone marrow failure BALB/c mouse model assessed as increase in eosinophils count at 2.5 to 10 mg/kg, po administered for 14 days and measured on day 14 by automated micro-analyzer; format: functional, organism-based; details: dose 2.5-10 mg/kg, time 14.0 day
[19] = tested on: Mus musculus; assay: Anti-aplastic anaemia in immune-mediated bone marrow failure BALB/c mouse model assessed as increase in platelet count at 2.5 to 10 mg/kg, po administered for 14 days and measured on day 14 by automated micro-analyzer; format: functional, organism-based; details: dose 2.5-10 mg/kg, time 14.0 day
[20] = tested on: Mus musculus; assay: Anti-aplastic anaemia in immune-mediated bone marrow failure BALB/c mouse model assessed as increase in plateletcrit at 2.5 to 10 mg/kg, po administered for 14 days and measured on day 14 by automated micro-analyzer; format: functional, organism-based; details: dose 2.5-10 mg/kg, time 14.0 day
[21] = tested on: Mus musculus; assay: Anti-aplastic anaemia in immune-mediated bone marrow failure BALB/c mouse model assessed as increase in immature reticulocytes administered orally for 14 days and measured on day 14 by automated micro-analyzer; format: functional, organism-based; details: dose 2.5-10 mg/kg, time 14.0 day
[22] = tested on: Mus musculus; assay: Anti-aplastic anaemia in immune-mediated bone marrow failure BALB/c mouse model assessed as reduction in histopathological changes in femur at 2.5 to 10 mg/kg, po administered for 14 days and measured on day 14 by Hematoxylin-Eosin staining based analysis; format: functional, organism-based; details: dose 2.5-10 mg/kg, time 14.0 day
[23] = tested on: Mus musculus; assay: Anti-aplastic anaemia in immune-mediated bone marrow failure BALB/c mouse model assessed as increase in nucleated cell counts in femur at 2.5 to 10 mg/kg, po administered for 14 days and measured on day 14 by Hematoxylin-Eosin staining based analysis; format: functional, organism-based; details: dose 2.5-10 mg/kg, time 14.0 day
[24] = Acute toxicity in po dosed Kunming mouse; format: organism-based; details: in vivo
[25] = Acute toxicity in Kunming mouse assessed as animal survival without abnormal state at 5 to 10 g/kg, po administered as single dose; format: organism-based; details: in vivo, dose 5-10 g/Kg
[26] = molecular target: Voltage-gated inwardly rectifying potassium channel KCNH2 (Homo sapiens, UniProt Q12809); assay: Inhibition of human ERG expressed in CHO cells measured after 24 hrs by patch clamp assay; format: cell-based
Chain of Voltage-gated inwardly rectifying potassium channel KCNH2 (Q12809 whole entry): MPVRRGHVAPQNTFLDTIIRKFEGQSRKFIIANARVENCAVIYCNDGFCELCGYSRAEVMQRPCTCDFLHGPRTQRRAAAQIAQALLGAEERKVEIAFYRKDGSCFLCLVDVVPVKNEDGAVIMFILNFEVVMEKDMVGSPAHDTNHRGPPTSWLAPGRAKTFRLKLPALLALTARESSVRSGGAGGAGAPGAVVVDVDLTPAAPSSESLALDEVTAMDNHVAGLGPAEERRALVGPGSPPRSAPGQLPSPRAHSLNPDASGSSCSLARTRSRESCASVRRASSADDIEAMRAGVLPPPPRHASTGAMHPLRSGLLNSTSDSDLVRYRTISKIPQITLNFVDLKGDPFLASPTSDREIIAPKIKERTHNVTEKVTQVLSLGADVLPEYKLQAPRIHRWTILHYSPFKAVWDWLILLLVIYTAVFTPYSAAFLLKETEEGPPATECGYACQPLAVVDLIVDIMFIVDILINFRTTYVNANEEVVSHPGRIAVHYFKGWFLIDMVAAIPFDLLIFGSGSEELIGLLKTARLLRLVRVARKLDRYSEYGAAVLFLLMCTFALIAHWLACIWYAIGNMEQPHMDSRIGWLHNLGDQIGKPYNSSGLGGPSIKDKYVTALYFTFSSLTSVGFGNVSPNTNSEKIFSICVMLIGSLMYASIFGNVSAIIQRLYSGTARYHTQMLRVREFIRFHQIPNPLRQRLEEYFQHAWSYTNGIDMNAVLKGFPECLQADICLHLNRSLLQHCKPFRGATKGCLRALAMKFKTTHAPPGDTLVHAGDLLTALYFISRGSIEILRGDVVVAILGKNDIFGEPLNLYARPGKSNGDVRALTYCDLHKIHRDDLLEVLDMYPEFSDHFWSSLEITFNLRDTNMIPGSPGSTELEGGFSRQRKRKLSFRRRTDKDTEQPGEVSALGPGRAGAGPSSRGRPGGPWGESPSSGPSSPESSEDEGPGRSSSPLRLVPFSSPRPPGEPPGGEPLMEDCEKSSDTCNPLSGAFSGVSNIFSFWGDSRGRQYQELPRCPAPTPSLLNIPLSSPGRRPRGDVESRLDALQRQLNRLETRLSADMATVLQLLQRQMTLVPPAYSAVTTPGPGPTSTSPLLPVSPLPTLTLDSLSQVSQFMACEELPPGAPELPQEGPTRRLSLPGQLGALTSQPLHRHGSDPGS

[27] = molecular target: hERG (KCNH2) (Homo sapiens, UniProt Q12809); assay: Inhibition of human ERG expressed in CHO cells measured after 24 hrs by patch clamp assay relative to control; format: cell-based; details: CHO cells expressing human ERG
Chain of hERG (KCNH2) (Q12809 whole entry): as above

[28] = Cytotoxicity against C57BL/6 mouse primary CD8-positive T lymphocytes assessed as effect on cell viability at 1 to 5 uM incubated for 48 hrs by CCK8 assay; format: tissue-based; details: dose 1-5 µM
[29] = Inhibition of CD3/CD28 antibody-stimulated C57BL/6 mouse primary CD8-positive T lymphocytes activation assessed as proportion of CD69-positive cells at 3 uM incubated for 48 hrs by flow cytometry (reference value: 93.42%); format: functional, CD8-positive T cell; parameters: scale not given: the % may be the effect or the level left
[30] = Inhibition of CD3/CD28 antibody-stimulated C57BL/6 mouse primary CD8-positive T lymphocytes activation assessed as proportion of CD69-positive cells at 5 uM incubated for 48 hrs by flow cytometry (reference value: 93.42%); format: functional, CD8-positive T cell; parameters: scale not given: the % may be the effect or the level left
[31] = tested on: Mus musculus; assay: Anti-aplastic anaemia in immune-mediated bone marrow failure BALB/c mouse model assessed as increase in ratio of nucleated cell to erythroid cell counts in femur at 2.5 to 10 mg/kg, po administered for 14 days and measured on day 14 by Hematoxylin-Eosin staining based analysis; format: functional, organism-based; details: dose 2.5-10 mg/kg, time 14.0 day
[32] = tested on: Mus musculus; assay: Anti-aplastic anaemia in immune-mediated bone marrow failure BALB/c mouse model assessed as slowing down the weight loss at 2.5 to 10 mg/kg, po administered for 14 days; format: functional, organism-based; details: dose 2.5-10 mg/kg, time 14.0 day
[33] = tested on: Mus musculus; assay: Anti-aplastic anaemia in immune-mediated bone marrow failure BALB/c mouse model assessed as prevention of food intake decrease at 2.5 to 10 mg/kg, po administered for 14 days; format: functional, organism-based; details: dose 2.5-10 mg/kg, time 14.0 day
[34] = tested on: Mus musculus; assay: Anti-aplastic anaemia in immune-mediated bone marrow failure BALB/c mouse model assessed as increase in spleen index at 2.5 to 10 mg/kg, po administered for 14 days; format: functional, organism-based; details: dose 2.5-10 mg/kg, time 14.0 day
[35] = tested on: Mus musculus; assay: Anti-aplastic anaemia in immune-mediated bone marrow failure BALB/c mouse model assessed as increase in thymus index at 2.5 to 10 mg/kg, po administered for 14 days; format: functional, organism-based; details: dose 2.5-10 mg/kg, time 14.0 day

With COC1=C[C@@H]2[C@@H]3Cc4c(COC(=O)/C=C/c5ccccc5)cc(OC)c(OC(=O)/C=C/c5ccccc5)c4[C@]2(CCN3C)CC1=O the inhibition at 24 h, 10 µM [1] was 6.4%, the inhibition at 10 µM [2] was 97.1% and the inhibition at 10 µM [3] was 98.1%. For the same compound, the IC50 [4] was 2.3 µM, the inhibition [5] was “Dose-Dependent Effect” and the Activity [6] was 89.37%. For the same compound, the inhibition [7] was “Active”, the inhibition [8] was “Active” and the inhibition [9] was “Active”. It also gave an IC50 [10] of 3.2 µM, an IC50 [11] of 4.4 µM and an IC50 [12] of 4.5 µM. The Activity [13] was “Active”, the Activity [14] was “Active” and the Activity [15] was “Active”. For the same compound, the Activity [16] was “Active”, the Activity [17] was “Active” and the Activity [18] was “Active”. For the same compound, the Activity [19] was “Active”, the Activity [20] was “Active” and the Activity [21] was “Active”. For the same compound, the Activity [22] was “Active”, the Activity [23] was “Active” and the LD50 [24] was over 10000 mg/kg. For the same compound, the Survival [25] was 14 days, the IC50 [26] was over 30 µM and the inhibition at 24 h [27] was 26.2%. For the same compound, the Activity [28] was “Non-Toxic”, the Activity [29] was 80.87% and the Activity [30] was 76.97%. For the same compound, the Activity [31] was “Active”, the Activity [32] was “Active” and the Activity [33] was “Active”. For the same compound, the Activity [34] was “Active” and the Activity [35] was “Active”.
